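A five-concentration, 48-hour dose response in 96-well plates underlies each endpoint, interpolated linearly between surrounding concentrations. At the GI50, growth is halved. TGI: total growth inhibition.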
Tests used:
Assay in all cases: DTP human tumour cell line panel, 48 h
CAKI-1 renal = tested on: CAKI-1 renal
HCT-116 colon = tested on: HCT-116 colon
NCI-H226 lung = tested on: NCI-H226 lung
NCI-H522 lung = tested on: NCI-H522 lung
OVCAR-3 ovarian = tested on: OVCAR-3 ovarian
OVCAR-4 ovarian = tested on: OVCAR-4 ovarian
SK-MEL-28 melanoma = tested on: SK-MEL-28 melanoma
SNB-19 CNS = tested on: SNB-19 CNS
UACC-257 melanoma = tested on: UACC-257 melanoma
K-562 leukemia = tested on: K-562 leukemia

Row | SMILES | GI50 (CAKI-1 renal) [µM] | TGI (CAKI-1 renal) [µM] | GI50 (HCT-116 colon) [µM] | TGI (HCT-116 colon) [µM] | GI50 (NCI-H226 lung) [µM] | TGI (NCI-H226 lung) [µM] | GI50 (NCI-H522 lung) [µM] | TGI (NCI-H522 lung) [µM] | GI50 (OVCAR-3 ovarian) [µM] | TGI (OVCAR-3 ovarian) [µM] | GI50 (OVCAR-4 ovarian) [µM] | TGI (OVCAR-4 ovarian) [µM] | GI50 (SK-MEL-28 melanoma) [µM] | TGI (SK-MEL-28 melanoma) [µM] | GI50 (SNB-19 CNS) [µM] | TGI (SNB-19 CNS) [µM] | GI50 (UACC-257 melanoma) [µM] | TGI (UACC-257 melanoma) [µM] | GI50 (K-562 leukemia) [µM] | TGI (K-562 leukemia) [µM]
1 | C=C1C(=O)O[C@H]2[C@H]1CC/C(COC(=O)NCC(C)c1ccc(CC(C)C)cc1)=C\CC[C@@]1(C)O[C@@H]21 (some centres not stated) | 2.32 | 6.68 | 0.641 | 1.32 | 1.05 | 4.59 | 0.661 | 1.77 | 0.625 | 1.27 | 2.31 | 6.59 | 1.6 | 5.52 | 3.82 | 7.95 | 5.01 | 9.89 |  | 
2 | C=C1C[C@@H]2CC[C@@]34C[C@H]5O[C@H]6[C@@H](O3)[C@H]3O[C@H](CC[C@@H]3O[C@H]6[C@@H]5O4)CC(=O)C[C@@H]3[C@@H](OC)[C@@H](C[C@H](O)CN)O[C@H]3C[C@H]3O[C@@H](CC[C@@H]1O2)C[C@@H](C)C3=C | 0.0358 | > 100 | < 0.01 | > 100 |  |  | < 0.01 | 11.8 | < 0.01 | 0.0219 | 1.03 | > 100 |  | > 100 | < 0.01 | > 100 | > 65.8 | > 100 | < 0.01 | > 100
3 | Cc1ccccc1NC(=O)C1C(=O)N(c2ccccc2C)C(=O)/C1=N\NC(N)=S (configuration not stated) |  | > 100 |  | > 100 |  | > 100 |  | > 100 |  | > 100 |  |  |  | > 100 |  | > 100 |  | > 100 |  | > 100
4 | COc1ccc(/C(=N\NC(=S)NN)C(c2ccc(OC)cc2)C2C(=O)Oc3ccccc32)cc1 (configuration not stated) |  |  | > 100 | > 100 | > 100 | > 100 |  | > 100 | > 100 | > 100 | > 100 | > 100 |  | > 100 |  |  | > 100 | > 100 | > 100 | > 100
5 | CC(=O)N1CCC2(c3ccccc3N(C(C)=O)C2c2ccc(O)cc2)C1C(=O)O (configuration not stated) |  |  |  | > 100 |  | > 100 |  | > 100 |  | > 100 |  |  |  | > 100 |  | > 100 |  | > 100 |  | > 100
6 | CCOC(=O)C1SC(=Nc2ccc(Cl)cc2)N=C1C (configuration not stated) |  |  |  | 30.2 |  | 41.9 |  | 33 |  | 47.8 |  | 56.1 |  | 40.9 |  | 35 |  |  |  | 43.3
7 | CSC(=S)N/N=C/c1nccc2ccccc12 |  | 14.2 |  | > 100 |  | 12 |  | 1.63 |  |  |  | > 100 |  | > 79.8 |  | > 27.1 |  | 15.5 |  | 14.3
8 | COc1cnc2c(c1)C(=O)c1c-2n(CCCN2CCN(C)CC2)c(=O)c2cc([N+](=O)[O-])ccc12 | 1.34 | 2.8 |  |  | 13.7 | 35.8 | 0.479 | 2.39 | 0.171 | 0.359 | 1.46 | 3.31 |  |  | 0.399 | 5.01 | 2.46 | 5.87 | 0.154 | 0.395
9 | O=C(Nc1ccc(Cl)c(Cl)c1)NS(=O)(=O)c1cnccc1Oc1ccc(F)cc1 | 2.5 | 8.23 | 3.07 | 12.3 | 9.77 | > 100 | 2.8 | 10.4 | 2.79 | 8.11 | 3.26 | > 100 |  |  | 4.29 | > 100 | 4.72 | 24.4 | 3.27 | > 100

Reference: PubChem BioAssay (NCI)
